Measured values from patent US20090197916A1, “SOLUBLE EPOXIDE HYDROLASE INHIBITORS FOR TREATMENT OF METABOLIC SYNDROME AND RELATED DISORDERS” (Arete Therapeutics, Inc, priority 2007, published 2009).

Assays:
[1] = test system: wild-type mice on high-fat, high-fructose diet (HF) or standard chow (NC); assay: Metabolic Syndrome Model 2: diet induced obesity mouse model; type: in vivo; conditions: for weight gain, HF-fed animals / total plasma cholesterol / glucose tolerance (GTT) / statistical significance of attenuated weight gain: HF diet; for weight gain, HF-fed animals: 60 mg/kg twice daily (Losartan 10 mg/kg/day in drinking water); for weight gain, HF-fed animals / total plasma cholesterol / glucose tolerance (GTT): vs vehicle; for total plasma cholesterol: 60 mg/kg twice daily, 4 weeks; for glucose tolerance (GTT): after 4 weeks of dosing 60 mg/kg twice daily; for statistical significance of attenuated weight gain: from second week of dose administration
From the text: Seven groups of 10 wild-type mice were entered onto the study. Five groups were placed on an ad libitum high-fat, high-fructose diet (HF); two groups were fed ad libitum with standard rodent chow and water (NC). Animals were maintained on the respective diet for the entire 12 weeks of the study. […] Losartan (Cozaar®) is a compound approved by the FDA for the treatment of hypertension, reducing the risk of stroke in a patient with hypertension and left ventricular hypertrophy, and treatment of diabetic nephropathy with an elevated serum […] and proteinuria in patients with type 2 diabetes and a history of hypertension.
Glucose tolerance tests (GTTs) were performed in Week 7 (prior to the start of dosing) and Week 12 (after 4 weeks of dosing). Body weights were recorded semi-weekly throughout the study whereas chow consumption and liquid intake were recorded weekly. Plasma was collected from untreated (Week 7, prior to the start of dosing) and treated (at the end of in-life) animals and submitted for the determination of plasma cholesterol. At the end of the in-life period, animals were sacrificed after terminal bleeds and discarded; no necropsies were performed.

sEH = biological target: T1, sEH (Homo sapiens, UniProt P34913); assay: sEH inhibition, fluorescent assay with CMNPC substrate (percent inhibition and IC50); type: biochemical; conditions: for IC50: procedure similar to the percent inhibition procedure
T1 sequence (P34913 1-555): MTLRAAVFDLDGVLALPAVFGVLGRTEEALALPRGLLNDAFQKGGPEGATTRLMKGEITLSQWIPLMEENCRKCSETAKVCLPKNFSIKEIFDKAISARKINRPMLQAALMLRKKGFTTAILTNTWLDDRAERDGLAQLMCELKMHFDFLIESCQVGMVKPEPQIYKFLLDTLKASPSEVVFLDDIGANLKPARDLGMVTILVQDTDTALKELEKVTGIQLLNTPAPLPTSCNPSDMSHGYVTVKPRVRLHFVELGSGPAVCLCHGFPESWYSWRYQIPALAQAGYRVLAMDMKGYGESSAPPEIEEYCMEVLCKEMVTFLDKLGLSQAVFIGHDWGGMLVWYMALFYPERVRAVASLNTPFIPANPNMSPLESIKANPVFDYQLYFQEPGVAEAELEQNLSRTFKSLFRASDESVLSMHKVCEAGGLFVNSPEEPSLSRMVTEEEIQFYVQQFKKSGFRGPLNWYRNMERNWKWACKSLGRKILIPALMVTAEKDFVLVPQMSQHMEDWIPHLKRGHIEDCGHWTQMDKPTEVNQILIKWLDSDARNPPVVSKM
Protocol: The substrate for the reaction was:
Therefore, well A2 would refer to a well in the first row and second column of the plate.
In a black 96 well plate, all the wells are filled with 150 μL of buffer A (Buffer A: Bis/Tris HCl, 25 mM, pH 7.0 plus 0.1 mg/mL BSA). DMSO (2 microliters) was added in well A2 and A3, and then was added 2 μL of inhibitor solution in A1 and A4 through A12. […] The plate was incubated for 5 minutes in the plate reader at 30° C. During incubation, the working solution of substrate was prepared by mixing 3.68 mL of buffer A with 266 μL of 0.5 mM substrate solution. At t=0, 30 μL of working substrate solution was added and readings were started ([S]final: 5 μM).

[2] = test system: Zucker diabetic fatty rats (ZDF); assay: Model 4: Zucker diabetic fatty rats; type: in vivo; conditions: daily dose of 100 mg/kg for four weeks, vs vehicle
Protocol: All protocols were approved by the institutional animal care and use committee at Arête Therapeutics. Eight weeks old male Zucker diabetic fatty rats (ZDF) (Charles River Laboratory, Hollister, Calif.) with a 270 g body weight on average used in this study were fed a normal chow. Baseline blood pressure and body weight were measured before surgery. Animals were anesthetized by inhalation of 2% isoflurane. The animals were randomly divided into 2 groups; […] Four animals were assigned to the vehicle group and three to the Compound 2 group. After 4 weeks of treatment, systolic blood pressure was measured in conscious mice using a tail-cuff system (Kent Scientific Corporation, Torrington, Conn.), and the animals were euthanized. Blood samples were collected via cardiac puncture for the measurement of a serum cholesterol profile (IDEXX Veterinary Services, West Sacramento, Calif.) and tissues were removed for analysis. All results are presented as the mean and standard error (SEM). Comparison between the vehicle and Compound 2 treatment groups was performed using Student's t test.

[3] = test system: male C57Bl/6 mice on high-fat, high-fructose diet; assay: Metabolic Syndrome Model 1: diet induced obesity mouse model; type: in vivo
Protocol: A diet induced obesity mouse model was used to evaluate the efficacy of the sEH inhibitor 1-[1-(methylsulfonyl)piperidin-4-yl]-3-(adamant-1-yl)urea (Compound 5) for the treatment of metabolic syndrome and the adverse conditions related thereto.
The study was performed using 7-8 week old male C57Bl/6 mice. The mice were acclimated a minimum of five days prior to the start of study and were housed five per cage in microisolators in a 12:12 light/dark cycle (all work was done in a BioBubble Hood™). Water and food was provided ad libitum.
The mice were provided a high-fat, high-fructose diet for a total of 11 weeks, within the first 5 weeks the animals became obese, insulin resistant, have increased plasma cholesterol and mildly hypertensive. The mice were separated into three groups, each group consisting of 10 mice after the first 5 weeks on the high-fat, high-fructose diet. The mice continued to receive the high-fat, high-fructose diet but also began to receive treatment for the remaining 6 weeks of the study for a total of 11 weeks of study. During the treatment phase, Group 1 was administered vehicle alone, perorally, twice a day for six weeks (control group); group 2 was administered 20 mg/kg of Compound 5, perorally, twice a day for six weeks; group 3 was administered 60 mg/kg Compound 5, perorally, twice a day for six weeks. At intervals of 3 and 5.5 weeks after the beginning of the treatment phase of the study, glucose tolerance tests were administered. At the beginning of the treatment phase and after 5 weeks of dosing, samples were collected for plasma cholesterol measurements. Blood pressure was measured 3 weeks after the start of the treatment phase of the study.
HF diet with 45% fat by calorie (Research Diets, D12451)
High-Fructose (degassed 7up)
Group 2) High-Fat Diet+Compound 5-20 mg/kg p.o. (perorally) b.i.d. (twice a day)
Group 3) High-Fat Diet+Compound 5-60 mg/kg p.o. (perorally) b.i.d. (twice a day)
Throughout duration of the study body weight, food, and fructose consumption was measured twice a week. Blood pressure and heart rate was measured one week.
Mice were randomized on the basis of average Body Weight in each of the three groups (n=10/gp).
GTT—Animals were fasted for 4 hours followed by a glucose load (2 g/kG body wt). The tip (3 mm) of the tail was excised and blood samples were taken for glucose clearance measurements (Glucometer) at T=0, 15, 30, 60, 90, and 120 minutes. This test determines if the animal is has glucose intolerance.
Plasma was analyzed using a lipid and chem panel analysis (Lipid-total cholesterol, HDL, LDL and Triglycerides, FFA).
p.o. (perorally) dosing of Compound 5 at 20 mg/kg and at 60 mg/kg begins b.i.d. twice a day) for […]
Measure blood pressure using a non-invasive CODA 6 occlusion cuff system

CC(=O)N1CCC(NC(=O)Nc2ccc(C(F)(F)F)cc2)CC1 [Compound 3, 1-[1-(acetyl)piperidin-4-yl]-3-(4-trifluoromethylphenyl) urea]
weight gain, HF-fed animals [1]: gained less weight | total plasma cholesterol [1]: slight elevation of total cholesterol | glucose tolerance (GTT) [1]: statistically significant improvements in glucose tolerance | statistical significance of attenuated weight gain [1]: statistically significant

O=C(NC1CCCCC1)NC1CCN(C(=O)c2ccccn2)CC1 [Compound 12, 1-cyclohexyl-3-(1-picolinoylpiperidin-4-yl)urea]
IC50 (sEH): 5.3 nM

CC(=O)N1CCC(NC(=O)NC23CC4CC(CC(C4)C2)C3)CC1 [Compound 2, 1-[1-(acetyl)piperidin-4-yl]-3-(adamant-1-yl) urea]
HDL level [2]: decreased | LDL [2]: significantly decreased | blood glycated hemoglobin (HbA1c %) [2]: significantly decreased | fasting plasma glucose level [2]: significantly decreased | total cholesterol [2]: significantly decreased | triglycerides (TGs) [2]: significantly decreased

CC(=O)NC1CCC(NC(=O)Nc2ccc(C(F)(F)F)cc2)CC1 (stereo not drawn) [Compound 17, N-(4-(3-(4-(trifluoromethyl)phenyl)ureido)cyclohexyl)acetamide]
IC50 (sEH): 6.2 nM

CCCCc1nc(Cl)c(CO)n1Cc1ccc(-c2ccccc2-c2nn[nH]n2)cc1 [Losartan, reference compound]
weight gain, HF-fed animals [1]: gained less weight

CC(C)S(=O)(=O)N1CCC(NC(=O)Nc2ccc(OC(F)(F)F)cc2)CC1 [Compound 13, 1-(1-(isopropylsulfonyl)piperidin-4-yl)-3-(4-(trifluoromethoxy)phenyl)urea]
IC50 (sEH): 1.6 nM

O=C(Nc1ccc(C(F)(F)F)cc1)Nc1ccc(Oc2ccccc2)nc1 [Compound 16, 1-(6-phenoxypyridin-3-yl)-3-(4-(trifluoromethyl)phenyl)urea]
IC50 (sEH): 7.1 nM

CS(=O)(=O)N1CCC(NC(=O)NC23CC4CC(CC(C4)C2)C3)CC1 [Compound 5, 1-[1-(methylsulfonyl)piperidin-4-yl]-3-(adamant-1-yl) urea]
cholesterol level ([3]; 60 mg/kg twice a day, vs vehicle, p<0.01): statistically lower cholesterol level | blood pressure ([3]; 60 mg/kg twice a day, vs vehicle, p<0.05): statistically significantly lower blood pressure | heart rate ([3]; 20 and 60 mg/kg b.i.d.): did not significantly alter heart rate | systolic and diastolic blood pressure ([3]; 20 and 60 mg/kg b.i.d., 3 weeks of treatment, vs control): reduced | serum glucose in GTT ([3]; 20 and 60 mg/kg p.o. b.i.d., relative to control group): decrease in serum glucose | area under the curve for plasma glucose after interperitonial glucose ([3]; both 20 and 60 mg/kg twice a day, vs vehicle and start of treatment, p<0.01): statistically lower area under the curve | body weight ([3]; either dose (20 or 60 mg/kg p.o. b.i.d.), vs vehicle): stabilization in body weight | plasma cholesterol levels ([3]; relative to control group, 5 weeks of dosing): reduced | mean blood pressure ([3]; vs control group): similarly reduced | weight gain, HF-fed animals [1]: gained less weight | total plasma cholesterol [1]: statistically significant decreases in cholesterol | glucose tolerance (GTT) [1]: statistically significant improvements in glucose tolerance | statistical significance of attenuated weight gain [1]: statistically significant | body weights, animals on NC ([1]; NC diet, Compound 5 60 mg/kg twice daily vs vehicle): similar

CC(C)(C)CC(=O)N1CCC(NC(=O)Nc2ccc(C(F)(F)F)cc2)CC1 [Compound 7, 1-(1-(3,3-dimethylbutanoyl)piperidin-4-yl)-3-(4-(trifluoromethyl)phenyl)urea]
IC50 (sEH): 0.8 nM

CS(=O)(=O)N1CCC(NC(=O)Nc2ccc(C(F)(F)F)cc2)CC1 [Compound 4, 1-[1-(methylsulfonyl)piperidin-4-yl]-3-(4-trifluoromethylphenyl) urea]
weight gain, HF-fed animals [1]: gained less weight | total plasma cholesterol [1]: decreases in total plasma cholesterol level, although not statistically significant | glucose tolerance (GTT) [1]: statistically significant improvements in glucose tolerance

CC(=O)N1CCC(NC(=O)Nc2cccc(C(F)(F)F)c2)CC1 [Compound 9, 1-(1-Acetyl-piperidin-4-yl)-3-(3-trifluoromethyl-phenyl)-urea]
IC50 (sEH): 10.1 nM

CC(C)OC(=O)N1CCC(NC(=O)Nc2ccc(C(F)(F)F)cc2)CC1 [Compound 11, isopropyl 4-(3-(4-(trifluoro-methyl)phenyl)ureido)-piperidine-1-carboxylate]
IC50 (sEH): 0.8 nM

CC(C)OC(=O)N1CCC(NC(=O)Nc2ccc(OC(F)(F)F)cc2)CC1 [Compound 15, isopropyl 4-(3-(4-(trifluoromethoxy)phenyl)ureido)piperidine-1-carboxylate]
IC50 (sEH): 2.1 nM

O=C(Nc1ccc(C(F)(F)F)cc1)NC1CCN(c2ccc(C(F)(F)F)cn2)CC1 [Compound 14, 1-(4-(trifluoromethyl)-phenyl)-3-(1-(5-(trifluoromethyl)-pyridin-2-yl)piperidin-4-yl)urea]
IC50 (sEH): 7.5 nM

O=C(Nc1ccc(C(F)(F)F)cc1)Nc1ccc(S(=O)(=O)c2ccccc2)cc1 [Compound 18, 1-(4-benzenesulfonyl-phenyl)-3-(4-trifluoromethyl-phenyl)-urea]
IC50 (sEH): 3.8 nM

O=C(Nc1ccc(C(F)(F)F)cc1)Nc1cccc(C(=O)N2CCOCC2)c1 [Compound 1, 1-[3-(morpholino-4-carbonyl)phenyl]-3-(4-trifluoromethylphenyl) urea]
% Inhibition (sEH; Concentration 50 nM): 82%
